Values of other authors, collected in patent US6845777B2, “Composition to reduce or quit smoking addiction” (priority 2001, dated 2005).

What was measured:
[1] = average adult

CN1CCCC1c1cccnc1 (centres unmarked) [Nicotine]
lethal unit dose [1]: about 60 mg | nicotine from the intestine that reaches the bloodstream in a not metabolized form (in vivo): about 30% | peak levels in the arteries (in vivo): approximately 40 micro-grams per milliliter of blood | plasma half-life (in vivo): 0.5 h and 2 h | nicotine inhaled from a cigarette that is absorbed into the bloodstream (inhalation of tobacco smoke): ≤ 90%
